Drawing on PubChem BioAssay (NCI), this text covers TGI and GI50 for 6 molecules.

Each structure is given as a SMILES string.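 Protocol summary: plate cells (96-well), add compound at 5 concentrations, incubate 48 h, interpolate endpoints linearly. GI50 = concentration required for 50% inhibition of growth. TGI marks complete inhibition of growth.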

Test systems include A498 renal; ACHN renal; CCRF-CEM leukemia; COLO 205 colon; DLD-1 colon; DMS 114 small cell lung; DMS 273 small cell lung; HCC-2998 colon; HL-60(TB) leukemia; HOP-62 NSCLC; LOX IMVI melanoma; LXFL 529 NSCLC; OVCAR-8 ovarian; RPMI-8226 leukemia; SK-OV-3 ovarian; SNB-19 CNS; SR leukemia; UACC-257 melanoma; OVCAR-3 ovarian.
Common to all, as to experiment: NCI-60 cell line screen, 48 h

On to `O=C(Nc1nc2ccc([N+](=O)[O-])cc2s1)C(=O)C(C(=O)c1ccccc1F)C1OC(=O)c2ccccc21` (stereo not given), for which the TGI in the assay on A498 renal was over 100 µM; in the assay on ACHN renal it was over 100 µM; in the assay on CCRF-CEM leukemia, 48.7 µM; in the assay on COLO 205 colon, 62.4 µM; in the assay with DLD-1 colon, over 100 µM; in the assay with DMS 114 small cell lung, 87.3 µM. The TGI is over 100 µM in the assay on DMS 273 small cell lung; 84.2 µM in the assay on HCC-2998 colon; 51.2 µM in the assay with HL-60(TB) leukemia; over 100 µM in the assay with HOP-62 NSCLC; over 100 µM with LOX IMVI melanoma; over 100 µM in the assay on LXFL 529 NSCLC. The TGI in the assay on OVCAR-8 ovarian is over 100 µM; in the assay with RPMI-8226 leukemia, 70.6 µM; in the assay with SK-OV-3 ovarian, 93.7 µM; with SNB-19 CNS it was over 100 µM; with SR leukemia, 54.2 µM; in the assay on UACC-257 melanoma it was over 100 µM.

Turning to `CCCc1c(-c2ccccc2)[nH]c2ccccc2c1=O`, the TGI in the assay on A498 renal was 79 µM; with ACHN renal it was over 100 µM; in the assay on CCRF-CEM leukemia it was over 100 µM; with COLO 205 colon, over 100 µM; in the assay on HCC-2998 colon, 65.4 µM; in the assay on HL-60(TB) leukemia it was over 100 µM. The TGI is over 100 µM in the assay on HOP-62 NSCLC; 43.5 µM in the assay on LOX IMVI melanoma; over 100 µM with OVCAR-3 ovarian; over 100 µM in the assay with RPMI-8226 leukemia; over 100 µM in the assay with SK-OV-3 ovarian; over 100 µM with SNB-19 CNS. Also, the TGI in the assay with SR leukemia and in the assay with UACC-257 melanoma was over 100 µM throughout.

Regarding `O=C1OC2(CC1C1(O)C3CC4CC(C3)CC1C4)C1CC3CC(C1)CC2C3` (stereo not given), the TGI with A498 renal was 84.5 µM; in the assay with ACHN renal, over 100 µM; in the assay on CCRF-CEM leukemia, over 100 µM; in the assay on DLD-1 colon, over 100 µM; in the assay on DMS 114 small cell lung it was over 100 µM; in the assay on DMS 273 small cell lung it was over 100 µM. Moreover, the TGI with HL-60(TB) leukemia, in the assay on LOX IMVI melanoma, in the assay with LXFL 529 NSCLC, in the assay on OVCAR-3 ovarian, in the assay with OVCAR-8 ovarian and in the assay with UACC-257 melanoma was over 100 µM throughout.

Turning to `Cc1ccc(C2OC(COCc3ccc(Cl)cc3)C(OCc3ccc(Cl)cc3)C2O)cc1` (stereo not given), the TGI with ACHN renal was 41.8 µM; in the assay with COLO 205 colon it was over 100 µM; in the assay with DLD-1 colon, 34.1 µM; in the assay on DMS 114 small cell lung it was 22.2 µM; in the assay with DMS 273 small cell lung, 18.9 µM; in the assay with HCC-2998 colon it was 72.7 µM. Moreover, the TGI in the assay with LXFL 529 NSCLC was found to be 58.5 µM; in the assay with OVCAR-3 ovarian, 27.5 µM; with OVCAR-8 ovarian it was 36.9 µM; in the assay with RPMI-8226 leukemia, 81.2 µM; with SK-OV-3 ovarian, 15.3 µM; in the assay with SNB-19 CNS, 56.7 µM. Further, the TGI in the assay with SR leukemia is over 100 µM; in the assay with UACC-257 melanoma, 43.1 µM.

Take `N#C[C@H](OC1OC(COC2OC(CO)C(O)C(O)C2O)C(O)C(O)C1O)c1ccccc1` (stereo not given in full): the TGI was over 11.6 µM with A498 renal; over 250 µM with CCRF-CEM leukemia; over 250 µM in the assay on COLO 205 colon; over 250 µM in the assay with DLD-1 colon; over 250 µM in the assay on DMS 114 small cell lung; over 250 µM in the assay on DMS 273 small cell lung. Also, the TGI with HCC-2998 colon was over 250 µM; in the assay with HL-60(TB) leukemia, over 141 µM; in the assay on HOP-62 NSCLC it was over 250 µM; with LOX IMVI melanoma, over 250 µM; with OVCAR-3 ovarian, over 250 µM; in the assay on OVCAR-8 ovarian it was over 250 µM. Also, the TGI in the assay with RPMI-8226 leukemia, in the assay with SK-OV-3 ovarian, in the assay with SNB-19 CNS and with UACC-257 melanoma was over 250 µM each time. In addition, the GI50 in the assay with HL-60(TB) leukemia was over 141 µM.

Turning to `O=C(O)c1cc2c(ncc3c(=O)n(-c4ccccc4)[nH]c32)s1`, the TGI with ACHN renal, with CCRF-CEM leukemia, in the assay with COLO 205 colon, in the assay on DLD-1 colon, with DMS 114 small cell lung and in the assay with DMS 273 small cell lung was over 100 µM each time. In addition, the TGI with HCC-2998 colon, in the assay on HOP-62 NSCLC, with LOX IMVI melanoma, with LXFL 529 NSCLC, with OVCAR-3 ovarian and in the assay with OVCAR-8 ovarian was over 100 µM each time. Moreover, the TGI in the assay with RPMI-8226 leukemia, in the assay on SK-OV-3 ovarian and with SR leukemia was over 100 µM throughout.
